{"source": "patent US10940150B2", "about": "“Thymine derivatives and quinazoline-dione derivatives for the inhibition of HSP27” (TECHNISCHE UNIVERSITAET DRESDEN, priority 2014, dated 2021)", "key": {"HSP27": {"target": "HSP27 (Homo sapiens, UniProt P04792)", "sequence (P04792 whole entry)": "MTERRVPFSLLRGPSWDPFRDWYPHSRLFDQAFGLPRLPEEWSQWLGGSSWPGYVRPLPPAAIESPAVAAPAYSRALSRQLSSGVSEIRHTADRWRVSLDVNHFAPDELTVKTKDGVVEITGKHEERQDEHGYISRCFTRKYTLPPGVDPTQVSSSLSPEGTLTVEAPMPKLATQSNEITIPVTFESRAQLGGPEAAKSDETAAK", "test": "Capillary electrophoresis of heat-denatured citrate synthase protein precipitates", "format": "biochemical", "conditions": "for Efficacy compared with BVDU: 10 μmol/L vs 750 μmol/L BVDU", "outline": "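Heat-denatured citrate synthase (1.44 μmol/L) with HSP27 (481 nmol/L) in 40 mmol/L HEPES pH 7.4; precipitates pelleted at 16,000×g, 10 min, room temperature, and quantified by capillary electrophoresis, BSA-normalized. Test substances at 10 μmol/L; precipitate relative to 750 μmol/L BVDU set at 1.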"}, "U937 cells": {"system": "U937 cells", "test": "Development of resistance to bortezomib in U937 cells", "format": "cell-based", "method": "For this purpose, U937 cells (histiocytic lymphoma) were cultured in DMEM culture medium (+10% FCS) at 37° C., 5% CO2 in an H2O-saturated atmosphere. 100,000 cells/ml were seeded and incubated with the cytostatic agent bortezomib (0.1 ng/ml) and the respective test substance (dosage in the current experiment: 1 μM/L acepromazine). The reference substance, BVDU, was employed at a concentration of 30 μM/L. The cells were in each case passaged before the cell count reached 1,000,000 cells/ml. At each passage, 100,000 cells/ml were again seeded and the dose of the cytostatic agent bortezomib was increased stepwise (0.1 ng/mL or 0.05 ng/mL). The concentration of the test substances remained constant. As a result of the stepwise increase in the dosage of the cytostatic agent, resistance developed in the U937 cells. The development of resistance is prevented or inhibited in the case of a positively tested HSP27 inhibitor. The experiments from Example 6 were repeated in the same way, wherein U937 cells (histiocytic lymphoma) are cultured in DMEM culture medium (+10% FCS) at 37° C., 5% CO2 in an H2O-saturated atmosphere. 100,000 cells/ml were seeded and incubated with an initial concentration of 0.2 ng/ml of the cytostatic agent bortezomib and both without an inhibitor and with acepromazine as an HSP27 inhibitor at a concentration of 1 μM/L. The reference substance, BVDU, was employed at a concentration of 30 μM/L. The cells were passaged in each case before the cell count reached 1,000,000 cells/ml. At each passage, 100,000 cells/ml were again seeded and the dose of the cytostatic agent bortezomib was increased stepwise by 0.1 ng/mL. The concentration of the test substance and the reference substance remained constant. As a result of the stepwise increase in the dosage of the cytostatic agent, resistance developed in the U937 cells. The development of resistance is prevented or inhibited in the case of a positively tested HSP27 inhibitor. The cell line U-937 is a histiocytic lymphoma (DSMZ ACC 5). This cell line also responds to treatment with bortezomib, expresses HSP27 and develops resistance to bortezomib. Bortezomib is not the standard therapy for this lymphoma, but is being discussed as a possible therapeutic agent. U-937 cells were seeded with a cell count of 100,000 cells/ml in each case and regularly passaged. […] At the end of the experiment, 70,000 living cells per ml medium could be detected. For the treatment with 30 μmol/L BVDU, a final cell count of 250,000 cells/ml was detected whereas the final cell count in the culture without the addition of an HSP27 inhibitor amounted to 450,000 cells/ml. As a control, U-937 cells were treated with the respective test substances alone, FIG. 10b."}, "RPMI-8226 cells": {"system": "RPMI-8226 cells", "test": "Development of resistance to bortezomib in RPMI-8226 cells", "format": "cell-based", "method": "The cell line RPMI-8226 (DMSZ 402) is a “multiple myeloma” cell line and was chosen because bortezomib is employed as a standard therapy for multiple myeloma. RPMI-8226 cells respond to bortezomib, express HSP27 and develop resistance to Velcade. RPMI-8226 cells were seeded at a cell count of 100,000 cells/ml in each case and regularly passaged. […] In contrast, for RPMI 8226 cells that were treated with 30 μmol/L BVDU, a final cell count of 160,000 cells/ml was detected whereas the final cell count for the culture without the addition of an HSP27 inhibitor amounted to 350,000 cells/ml. As a control, RPMI 8226 cells were treated with the respective test substances alone, FIG. 4b."}}}
{"smiles": "CC(=O)c1ccc2c(c1)N(CCCN(C)C)c1ccccc1S2", "note": "[Acepromazine]", "values": [{"measurement": "Efficacy compared with BVDU", "setting": "HSP27; 43° C. for 120 minutes (Table 1)", "value": 74.25, "unit": "x"}, {"measurement": "Efficacy compared with BVDU", "setting": "HSP27; 43° C. for 120 minutes (Table 2)", "value": 74.25, "unit": "x"}, {"measurement": "Rel. quantity of protein prec. CS", "setting": "HSP27; 10 μmol/L, 43° C. for 120 minutes, relative to 750 μmol/L BVDU = 1 (Table 1)", "value": 0.99}, {"measurement": "Rel. quantity of protein prec. CS", "setting": "HSP27; 10 μmol/L, 43° C. for 120 minutes, relative to 750 μmol/L BVDU = 1 (Table 2)", "value": 0.99}, {"measurement": "development of resistance to the cytostatic agent bortezomib", "setting": "U937 cells; bortezomib 0.1-0.5 ng/ml + 0.75 μmol/L acepromazine (FIG. 10a)", "value": "significantly inhibited"}, {"measurement": "living cells at the end of the experiment", "setting": "U937 cells; bortezomib 0.1-0.5 ng/ml + 0.75 μmol/L acepromazine (FIG. 10a), without HSP27 inhibitor 450,000 cells/ml", "value": "70,000 living cells per ml medium"}, {"measurement": "development of resistance to bortezomib", "setting": "U937 cells; bortezomib 0.1 to 0.5 ng/ml stepwise + 1 μM acepromazine (FIG. 2)", "value": "no development of resistance occurred"}, {"measurement": "living cells at the end of the experiment", "setting": "U937 cells; bortezomib 0.1 to 0.5 ng/ml stepwise + 1 μM acepromazine (FIG. 2), without HSP27 inhibitor 790,000 cells/ml", "value": "no living cells were detectable"}, {"measurement": "development of resistance to bortezomib", "setting": "U937 cells; bortezomib 0.2 to 0.4 ng/ml stepwise + 1 μM acepromazine (FIG. 3)", "value": "no development of resistance occurred"}, {"measurement": "living cells at the end of the experiment", "setting": "U937 cells; bortezomib 0.2 to 0.4 ng/ml stepwise + 1 μM acepromazine (FIG. 3), without HSP27 inhibitor 230,000 cells/ml", "value": "no living cells were detectable"}, {"measurement": "development of resistance to the cytostatic agent bortezomib", "setting": "RPMI-8226 cells; bortezomib 0.2-0.4 ng/ml + 0.75 μmol/L acepromazine (FIG. 4a)", "value": "significantly inhibited"}, {"measurement": "living cells at the end of the experiment", "setting": "RPMI-8226 cells; bortezomib 0.2-0.4 ng/ml + 0.75 μmol/L acepromazine (FIG. 4a), without HSP27 inhibitor 350,000 cells/ml", "value": "30,000 living cells per ml medium"}]}
{"smiles": "O=c1[nH]c(=O)n([C@H]2C[C@H](O)[C@@H](CO)O2)cc1/C=C/Br", "note": "[BVDU, (E)-5-(2-bromovinyl)-2′-deoxyuridine]", "values": [{"measurement": "Rel. quantity of protein prec. CS", "setting": "HSP27; 750 μmol/L, 43° C. for 70 minutes, set at 1 (Table 3)", "value": 1}, {"measurement": "Rel. quantity of protein prec. CS", "setting": "HSP27; 750 μmol/L, 43° C. for 120 minutes, set at 1 (Table 1)", "value": 1}, {"measurement": "Rel. quantity of protein prec. CS", "setting": "HSP27; 750 μmol/L, 43° C. for 120 minutes, set at 1 (Table 2)", "value": 1}, {"measurement": "final cell count", "setting": "U937 cells; bortezomib 0.1-0.5 ng/ml + 30 μmol/L BVDU (FIG. 10a), without HSP27 inhibitor 450,000 cells/ml", "value": "250,000 cells/ml"}, {"measurement": "final cell count", "setting": "U937 cells; bortezomib 0.1-0.5 ng/ml + 30 μmol/L BVDU (FIG. 11a), without HSP27 inhibitor 450,000 cells/ml", "value": "250,000 cells/ml"}, {"measurement": "final cell count", "setting": "U937 cells; bortezomib 0.1 to 0.5 ng/ml stepwise + 30 μM BVDU (FIG. 2), without HSP27 inhibitor 790,000 cells/ml", "value": "430,000 cells/ml"}, {"measurement": "final cell count", "setting": "U937 cells; bortezomib 0.2 to 0.4 ng/ml stepwise + 30 μM BVDU (FIG. 3), without HSP27 inhibitor 230,000 cells/ml", "value": "60,000 cells/ml"}, {"measurement": "final cell count", "setting": "RPMI-8226 cells; bortezomib 0.075-0.275 ng/ml + 30 μmol/L BVDU (FIG. 9a), without HSP27 inhibitor 510,000 cells/ml", "value": "340,000 cells/ml"}, {"measurement": "final cell count", "setting": "RPMI-8226 cells; bortezomib 0.2-0.4 ng/ml + 30 μmol/L BVDU (FIG. 4a), without HSP27 inhibitor 350,000 cells/ml", "value": "160,000 cells/ml"}, {"measurement": "final cell count", "setting": "RPMI-8226 cells; bortezomib 0.2-0.4 ng/ml + 30 μmol/L BVDU (FIG. 5a), without HSP27 inhibitor 350,000 cells/ml", "value": "160,000 cells/ml"}]}
